Results: patent US6518012B1, “Method for regulating the expression of MHC antigens and CD40 by inhibitors of histone deacetylation” (Health Research, Inc., priority 1999, dated 2003)

Columns and labels:
[1] = tested on: interferon regulatory factor (IRF-1) and guanylate binding protein (GBP) mRNA; assay: mRNA of IFNγ inducible genes IRF-1 and GBP in SK-N-MC; format: cell-based, human; conditions: IFNγ treatment, data not shown
J558 cells = assay: Other cell surface markers by flow cytometry on J558 cells; format: cell-based, mouse; conditions: TSA treatment
Description: (§1) To determine the effect of TSA on cell surface protein expression, the J558 cell line was subjected to flow cytometric analyses as follows. Flow cytometric analyses were conducted by standard methods using cells fixed with 1.0% paraformaldehyde and analyzed on the FACScan (Becton Dickinson). Cell cycle analyses were carried out by flow cytometry with PI staining of genomic DNA. Cells were fixed and permeablized in methanol, treated with RNaseA and analyzed for DNA content by determination of FL3-area on the FACScan. The FL3-area data were analyzed with the ModFit software for determination of the percent cells in each phase of the cell cycle. In some cases, fluorescein isothiocyanate (FITC)-conjugated antibody staining was conducted prior to PI treatment and surface staining was analyzed as a function of cell cycle phase. Apoptosis was analyzed by staining with annexin-V directly conjugated with either FITC or RPE and by sub-G0 analysis of DNA staining. […] Isotype controls were analyzed and, in each case, fell on or below the levels shown for control cells. […] Since all cells were positive for MHC class I expression, the number under the histogram represents -fold change of expression calculated from the mean channel-shift after treatment relative to untreated cells. […]

CD40 = assay: Cell surface CD40 by flow cytometry on SK-N-MC; format: cell-based, human; conditions: 50 nM TSA 48 hours
[2] = tested on: MC, Colon 26 and J558 cells; assay: Cell cycle analysis by DNA staining and flow cytometry; format: cell-based; conditions: TSA concentrations used in FIG. 8 (50 nM 48 hours MC and Colon 26; 25 nM 24 hours J558); data not shown
Description: as §1

[3] = tested on: MC, Colon 26 and J558 cells; assay: Apoptosis by flow cytometry (sub-G0 PI staining, annexin-V); format: cell-based; conditions: low concentrations of TSA employed in FIG. 8
Description: as §1

cell lines employed = assay: Toxicity of deacetylase inhibitors (lift-off, trypan-blue dye exclusion, laddering, PI/annexin-V flow cytometry); format: cell-based; conditions: TSA from 5 nM to 250 nM for 6 to 72 hr
Description: Two representative DAIs, TSA and NaBu were used for this illustration. […] In some experiments, 100 U/ml γ-IFN was added with and without the deacetylase inhibitor.

MHC class I = assay: Cell surface MHC class I by flow cytometry on SK-N-MC; format: cell-based, human; conditions: 50 nM TSA 48 hours
[4] = tested on: DP and DQ isotypes of MHC class II mRNA; assay: mRNA for DP and DQ isotypes of MHC class II in SK-N-MC; format: cell-based, human; conditions: data not shown

mRNA for IRF-1 and GBP [1] | Compound | expressed markers (CD44, CD54, CD80, CD86, CD119) (J558 cells) | levels of non-expressed antigens (CD25, B7 integrin, CD40L, H2K^k, IA^k) (J558 cells) | expression of CD40 on cell surface (CD40) | effect on the cell cycle [2] | apoptosis [3] | toxicity (cell lines employed) | MHC class I expression on cell surface (MHC class I) | mRNA for the DP and DQ isotypes of MHC class II [4]
enhanced | IFNγ: gamma-interferon, cytokine used as comparator at 100 U/ml | – | – | – | – | – | – | – | –
– | CC(/C=C/C(=O)NO)=C\[C@@H](C)C(=O)c1ccc(N(C)C)cc1 [TSA, Trichostatin A] | not altered | not elicited | induced expression | did not significantly alter | could not be detected | non toxic | enhanced | induced
